Laboratory results as given in patent US6670334B2, “Method and compositions for treating the inflammatory response” (University of Virginia Patent Foundation, priority 2001, dated 2003).
One block for each compound: values may come before it.

What was measured:
human adherent monocytes = test: Production of TNFα by purified human adherent monocytes (endotoxin-stimulated, ELISA); type: cell-based; settings: ZM241385 50 nM; p=0.020; FIG. 7B
Protocol: Production of TNFα by purified human adherent monocytes. A monocyte rich monolayer (>95% monocytes) was prepared by incubating 1 ml of the mononuclear leukocyte fraction (5×10^5/ml) from a Ficoll-Hypaque separation in wells of a 24 well tissue culture plate (1 hr; 37° C.; 5% CO2). […] The samples were incubated for 4 hr (37° C.; 5% CO2) and the supernatants harvested. Any suspended cells were removed by centrifugation and the cell-free samples frozen (−70° C.). TNFα was assayed in the cell-free supernatants by an ELISA kit (Cistron Biotechnology, Pine Brook, N.J.).

PMN = test: TNF-stimulated PMN adherence to a fibrinogen-coated surface; type: cell-based, human
Protocol: PMN adherence to fibrinogen was measured as follows as adapted from Hanlon, J. Leukocyte Biol., 50, 43 (1991). Twenty-four well flat-bottomed tissue culture plates were incubated (37° C.) overnight with 0.5 ml of fibrinogen (5 mg/ml) dissolved in 1.5% NaHCO3. The plates were emptied and each well washed 2× with 1 ml of normal saline. The wells were then filled with 1 ml of HBSS-0.1% human serum albumin containing PMN (1×10^6/ml) with and without rhTNFα (1 U/ml), adenosine deaminase (ADA) (1 U/ML), WRC-0474[SHA 211] (10 nM), CGS21680 (30 nM), adenosine (100 nM) and rolipram (100 nM). The plates were incubated for 90 minutes at 37° C. in 5% CO2. Following incubation the tissue culture wells were washed free of non-adherent cells with normal saline. The adherent monolayer of PMN was lysed with 0.1% triton-X, the amount of lactic dehydrogenase (LDH) released from the monolayer assayed (LDH kit, Sigma Co., St. Louis, Mo.), and compared to a standard curve relating the LDH content to PMN numbers.

human neutrophils = test: Neutrophil oxidative activity (luminol-enhanced chemiluminescence), TNF/f-met-leu-phe stimulation; type: cell-based; settings: TNF-alpha 10 U/ml primed, fMLP 1 μM stimulated, ADA 1 Units/ml, FIG. 13, read-out: EC50 for decreasing neutrophil oxidative activity
Description: A2A agonists blocking of neutrophil oxidative activity. […] This was detected by luminol-enhanced chemiluminescence. The EC50's were lower for the ester when compared to its acid.
A one-step Ficoll-Hypaque separation procedure (Ferrante and Thong, 1980) was used to purify human neutrophils from normal heparinized (10 Units/ml) of venous blood yielding approximately 98% neutrophils; having about >95% viable as determined with trypan blue containing <50 pg/ml of endotoxin. Following separation, the neutrophils were washed with Hank's balanced salt solution (HBSS) three times.
Neutrophil oxidative activity (luminol-enhanced chemiluminescence): The activated neutrophils emit light from unstable high-energy oxygen species produced by the plasma membrane associated NADPH oxidase and metabolized by cytoplasmic and granule enzymes. The light signal from activated neutrophils can be enhanced by the addition of luminol to the samples. […]
The purified neutrophils (1×10^6/ml) were incubated in HBSS containing 0.1% HSA (1 ml), plus adenosine deaminase (1 Units/ml), ±JR2171 or ±CGS21680, and with TNF-alpha (10 U/ml) for 30 min at 37° C. in a shaking water bath. Then luminol ([…]) enhanced f-met-leu-phe (1 μM)-stimulated chemiluminescence was read with a Chronolog Photometer (Chronolog Corp., Havertown, Pa.) at 37° C. for 8 min. […]

[1] = system: Adult wistar rats with bacteria meningitis (BM); test: Rat model of inflammation (bacteria meningitis): CSF WBC pleocytosis and blood-brain barrier permeability; type: in vivo
Protocol: Effects of WRC-0470 and rolipram on the extravasation of white blood cells in a rat model of inflammation. Adult wistar rats (approximately 200 g) were anesthetized with intermuscular injections of ketamine and xylazine. Bacteria meningitis (BM) was introduced via intracistemal inoculation of either E. coli strain 026:B6LPS (200 ng), cytokines (IL-1 and TNFα or LPS plus cytokines). The animals were then infused with rolipram and/or WRC-1470 over the duration of the experiment using a Harvard pump. CSF (cerebrospinal fluid) and blood was then sampled at 4 h post-inoculation and alterations in BBBP (blood-brain barrier permeability) and WBC (white blood cell) counts were determined. CSF and WBC concentrations were determined with standard hemacytometer methods. For assessment of % BBBP, rats were given an intravenous injection of 5 μCi 125I-labeled bovine serum albumin concomitant with intracistemal inoculation. Equal samples of CSF and blood were read simultaneously in a gamma counter and after subtraction of background radioactivity, % BBBP was calculated by the following formula: % BBBP=(cpm CSF/cpm blood)×100. All statistical tests were performed using Instat biostatistical software to compare the post-inoculation samples of experimental rats with the control rats. The statistical tests used to generate p-values were Student's t-test and ANOVA.

[2] = system: Human PMN adherent to fibrinogen; test: TNFα-stimulated superoxide release of PMN adherent to a fibrinogen coated surface; type: cell-based; settings: rolipram 100 nM; WRC-0474[SHA 211] 30-300 nM, other agonists 300 nM; p<0.05; FIG. 5
[3] = molecular target: recombinant human A2A adenosine receptors (Homo sapiens, UniProt P29274); test: Radioligand binding assay, competition for 125I-ZM241385
Sequence of recombinant human A2A adenosine receptors (P29274 whole entry): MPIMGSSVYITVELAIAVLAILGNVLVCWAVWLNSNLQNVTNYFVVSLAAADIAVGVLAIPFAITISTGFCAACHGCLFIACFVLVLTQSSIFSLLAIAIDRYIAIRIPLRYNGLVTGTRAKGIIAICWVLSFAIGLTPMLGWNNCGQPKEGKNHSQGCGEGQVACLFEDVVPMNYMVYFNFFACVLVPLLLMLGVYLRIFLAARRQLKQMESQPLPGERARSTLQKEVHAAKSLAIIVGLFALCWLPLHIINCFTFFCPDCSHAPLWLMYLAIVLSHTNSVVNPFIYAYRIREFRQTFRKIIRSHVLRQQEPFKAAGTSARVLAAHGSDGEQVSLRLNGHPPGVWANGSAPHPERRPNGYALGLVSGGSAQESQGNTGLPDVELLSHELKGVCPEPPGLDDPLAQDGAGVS

Structure (SMILES): Nc1nc(NCCc2ccc(O)cc2)nc2nc(-c3ccco3)nn12 [ZM241385, 4-(2-[7-amino-2-(2-furyl)[1,2,4]-triazolo[2,3a]-[1,3,5]trazinyl-amino]ethyl)-phenol]
antagonism of the effect of WRC-0470 (300 nM) combined with rolipram (300 nM) on TNFα release from monocytes (human adherent monocytes): significantly inhibited the effect

EC50 (human neutrophils): 2.09 nM
Structure (SMILES): CCNC(=O)C1OC(n2cnc3c(N)nc(NCCc4ccc(CCC(=O)O)cc4)nc32)C(O)C1O (stereo not drawn) [CGS21680, 3-(4-{2-[6-amino-9-(5-ethylcarbamoyl-3,4-dihydroxy-tetrahydro-furan-2-yl)-9H-purin-2-ylamino]-ethyl}-phenyl)-propionic acid]
TNF-stimulated PMN adherence, % adhered (PMN; 30 nM, in the presence of ADA, TNF+ADA control 38%, p=0.004): 30%

Structure (SMILES): COc1ccc(C2CNC(=O)C2)cc1OC1CCCC1 (stereo not drawn) [Rolipram, 4-(3-cyclopentyloxy-4-methoxyphenyl)-2-pyrrolidone]
alterations of BBBP ([1]; 0.002 μg/kg/hr): no significant effect | inhibition of CSF pleocytosis ([1]; 0.01 μg/kg/hr, p<0.05, FIG. 10): 99% | alterations of BBBP ([1]; 0.01 or 0.005 μg/kg/hr, p<0.05): significant inhibition | WBC migrated into the sub-arachnoid space (CSF WBC) ([1]; rolipram alone (0.001 μg/kg/hr), p<0.050): 1,670±1,273 WBC/μl

Structure (SMILES): Nc1nc(OCCc2ccc3ccccc3c2)nc2c1ncn2[C@@H]1O[C@H](CO)[C@@H](O)[C@H]1O [WRC-0018]
TNFα-stimulated adherent PMN superoxide release, agonist combined with rolipram [2]: synergistically decreased superoxide release

Ki [3]: 45 nM | EC50 (human neutrophils): 0.371 nM
Structure (SMILES): CCNC(=O)C1OC(n2cnc3c(N)nc(NCCc4ccc(CCC(=O)OC)cc4)nc32)C(O)C1O (stereo not drawn) [JR2171, 3-(4-{2-[6-Amino-9-(5-ethylcarbamoyl-3,4-dihydroxy-tetrahydro-furan-2-yl)9H-purin-2-ylamino]-ethyl}-phenyl)-propionic acid methyl ester]

Structure (SMILES): Nc1ncnc2c1ncn2[C@@H]1O[C@H](CO)[C@@H](O)[C@H]1O [adenosine]
TNF-stimulated PMN adherence, % adhered (PMN; 100 nM, p=0.009 compared to TNF in the presence of ADA): 28%

Structure (SMILES): Cc1ccc(CCOc2nc(N)c3ncn([C@@H]4O[C@H](CO)[C@@H](O)[C@H]4O)c3n2)cc1 [WRC-0090]
TNFα-stimulated adherent PMN superoxide release, agonist combined with rolipram [2]: synergistically decreased superoxide release
